Source: patent publication US6204002A, “Gangliosides having fluorescent-tagged ceramide moieties” (priority 1996, dated 2001)

Experiments:
[1] = type: physicochemical; details: densitometer, GM3 adhered to a microplate; insufficient to detect influenza virus
[2] = test system: influenza virus A/Aichi/2/68 (H3N2); test: TLC/virus binding assay: binding activity of ganglioside to influenza virus

O=C1OC2(c3ccc(O)cc3Oc3cc(O)ccc32)c2ccccc21 [GM3 fluorescein]
fluorescence of virus-bound compound in hydrophobic conditions [1]: very weak fluorescence

CCCCCCCCCCCCC/C=C/[C@@H](O)[C@H](CO[C@@H]1O[C@H](CO)[C@@H](O[C@@H]2O[C@H](CO[C@]3(C(=O)O)C[C@H](O)[C@@H](NC(C)=O)[C@H]([C@H](O)[C@H](O)CO)O3)[C@H](O)[C@H](O)[C@H]2O)[C@H](O)[C@H]1O)NC(=O)CCc1ccc(/C=C/C=C/C=C/c2ccccc2)cc1 [compound 3, O-(5-acetamide-3,5-dideoxy-D-glycero-α-D-galacto-2-nonuropyranosylonate)-(2→6)-O-(β-D-galactopyranosyl)-(1→4)-O-(β-D-glucopyranosyl)-(1→1)-(2S, 3R,4E)-2-(3-(p-(6-phenyl)1,3,5-hexatrienyl)phenylpropionamide)-4-octadecene-1,3-diol]
sensitivity relative to conventional sialyl(α2-6)lactosylceramide [2]: 4 times | relative measurement intensity (response of densitometer at 620 nm minus response at 430 nm) ([2]; 6 nmol ganglioside spotted on TLC plate, reference point set equal to 100, FIG. 1): 100% | detection of influenza virus (sensitivity) ([2]; TLC/virus binding assay, A/Aichi/2/68 (H3N2)): very high sensitivity | detection sensitivity relative to GM3 ([2]; according to FIG. 1, A/Aichi/2/68 (H3N2)): 12 times
